ChEMBL document CHEMBL1125407, “Noncataleptogenic, centrally acting dopamine D-2 and serotonin 5-HT2 antagonists within a series of 3-substituted 1-(4-fluorophenyl)-1H-indoles” (J Med Chem, 1992)

Columns and labels:
[1] = molecular target: T1, Serotonin 2 (5-HT2) receptor (Rattus norvegicus, UniProt P30994+P08909+P14842); test: Inhibition of [3H]ketanserin binding to rat 5-hydroxytryptamine 2 receptors.; format: protein assay
[2] = molecular target: D(2) dopamine receptor (Rattus norvegicus) (UniProt P61169); test: Tested in vivo for induction of catalepsy against D2 receptor in rats; format: functional, organism-based
Rattus norvegicus [3] = species on record: Rattus norvegicus; test: Inhibition of quipazine induced head twitches in rats; format: functional
[4] = molecular target: D(2) dopamine receptor (Mus musculus) (UniProt P61168); test: Tested in vivo for methyl phenidate-induced gnawing behavior antagonistic activity against dopamine D2 receptor in mice; format: functional, organism-based
D(2) dopamine receptor = D(2) dopamine receptor (Rattus norvegicus, UniProt P61169); test: Tested for the inhibition of [3H]spiperone binding to dopamine D2 receptor
Rattus norvegicus [5] = test: Compound was tested for the inhibition of quipazine-induced head twitches 24 hours after subcutaneous administration; format: functional; conditions: sc
[6] = molecular target: T1, Serotonin 2 (5-HT2) receptor; test: Inhibition of [3H]ketanserin binding to […] 5-hydroxytryptamine 2 receptor; format: protein assay
[7] = molecular target: T2, Serotonin 2 (5-HT2) receptor (Rattus norvegicus) (UniProt P30994+P08909+P14842); test: Compound was tested for the inhibition of quipazine binding at 5-hydroxytryptamine 2 receptor; format: protein assay
[8] = molecular target: D(2) dopamine receptor (Mus musculus) (UniProt P61168); test: (§1) Compound was tested in vivo for methyl phenidate-induced gnawing behavior antagonistic activity against dopamine D-2 receptor in mice; format: functional, organism-based
[9] = molecular target: T2, Serotonin 2 (5-HT2) receptor (Rattus norvegicus); test: Compound was tested for the inhibition of quipazine binding at 5-HT2 receptor; format: protein assay
[10] = molecular target: D(2) dopamine receptor (Rattus norvegicus) (UniProt P61169); test: Compound was tested in vivo for induction of catalepsy against D-2 receptor in rats; format: organism-based
[11] = molecular target: D(2) dopamine receptor (Rattus norvegicus) (UniProt P61169); test: as §1; format: functional, organism-based

Chain of D(2) dopamine receptor (P61169 whole entry): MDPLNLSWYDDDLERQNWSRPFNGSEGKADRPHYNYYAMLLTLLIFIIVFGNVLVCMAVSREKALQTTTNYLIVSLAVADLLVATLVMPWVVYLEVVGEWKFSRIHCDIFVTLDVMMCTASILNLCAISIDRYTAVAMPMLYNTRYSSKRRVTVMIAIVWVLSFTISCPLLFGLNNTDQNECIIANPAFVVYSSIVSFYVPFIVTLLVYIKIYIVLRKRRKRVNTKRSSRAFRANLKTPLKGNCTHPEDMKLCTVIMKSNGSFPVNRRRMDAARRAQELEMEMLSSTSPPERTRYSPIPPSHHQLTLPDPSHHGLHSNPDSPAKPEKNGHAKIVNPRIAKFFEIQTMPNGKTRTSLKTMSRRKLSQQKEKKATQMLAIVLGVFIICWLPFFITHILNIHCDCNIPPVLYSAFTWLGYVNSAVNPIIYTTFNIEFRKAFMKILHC
Chain of D(2) dopamine receptor (Rattus norvegicus) (P61169 whole entry): as above
Chain of D(2) dopamine receptor (Mus musculus) (P61168 whole entry): as the sequence (P61169 whole entry) above, with A29P counted along it
T2 sequence (P08909 whole entry, looked up): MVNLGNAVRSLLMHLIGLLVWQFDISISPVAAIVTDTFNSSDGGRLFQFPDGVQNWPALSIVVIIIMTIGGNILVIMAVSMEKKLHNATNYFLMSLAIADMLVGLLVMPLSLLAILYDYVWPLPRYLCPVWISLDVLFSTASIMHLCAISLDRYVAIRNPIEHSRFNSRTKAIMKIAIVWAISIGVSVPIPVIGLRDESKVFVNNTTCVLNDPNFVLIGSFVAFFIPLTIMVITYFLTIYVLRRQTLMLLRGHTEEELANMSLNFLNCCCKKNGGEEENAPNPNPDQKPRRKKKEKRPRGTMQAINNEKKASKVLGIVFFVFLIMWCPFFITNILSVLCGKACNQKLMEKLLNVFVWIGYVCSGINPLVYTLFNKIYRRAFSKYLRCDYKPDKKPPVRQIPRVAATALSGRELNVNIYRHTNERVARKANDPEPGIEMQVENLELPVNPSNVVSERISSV
T2 sequence (P14842 whole entry, looked up): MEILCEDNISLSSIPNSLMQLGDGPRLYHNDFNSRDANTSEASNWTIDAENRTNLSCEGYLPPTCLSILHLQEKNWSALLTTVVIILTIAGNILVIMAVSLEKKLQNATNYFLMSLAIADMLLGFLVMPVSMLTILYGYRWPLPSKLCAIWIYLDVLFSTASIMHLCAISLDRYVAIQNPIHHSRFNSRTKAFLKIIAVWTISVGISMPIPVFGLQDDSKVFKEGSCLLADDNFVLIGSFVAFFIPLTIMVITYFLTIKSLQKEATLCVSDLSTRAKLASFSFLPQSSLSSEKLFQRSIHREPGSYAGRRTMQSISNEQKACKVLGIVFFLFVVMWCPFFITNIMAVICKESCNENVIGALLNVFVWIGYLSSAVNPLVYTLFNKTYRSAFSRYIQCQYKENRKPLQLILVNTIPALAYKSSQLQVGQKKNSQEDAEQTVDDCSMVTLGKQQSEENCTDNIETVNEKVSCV
T2 sequence (P30994 whole entry, looked up): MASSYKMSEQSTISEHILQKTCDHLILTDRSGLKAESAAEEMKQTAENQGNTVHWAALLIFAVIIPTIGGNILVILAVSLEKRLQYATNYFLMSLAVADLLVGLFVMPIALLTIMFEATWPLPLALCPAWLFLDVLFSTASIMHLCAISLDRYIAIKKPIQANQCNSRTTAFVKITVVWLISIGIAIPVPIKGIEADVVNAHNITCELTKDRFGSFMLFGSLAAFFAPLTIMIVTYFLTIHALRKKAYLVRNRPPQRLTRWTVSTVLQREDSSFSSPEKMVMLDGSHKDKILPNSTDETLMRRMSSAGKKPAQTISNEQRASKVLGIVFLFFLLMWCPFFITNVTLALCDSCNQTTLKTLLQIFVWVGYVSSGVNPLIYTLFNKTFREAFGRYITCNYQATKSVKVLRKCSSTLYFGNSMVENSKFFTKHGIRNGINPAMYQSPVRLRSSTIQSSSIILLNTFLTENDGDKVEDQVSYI

Row | Compound | IC50 [1] [nM] | ED50 [2] [µmol/kg] | ED50 (Rattus norvegicus [3]) [µmol/kg] | ED50 [4] [µmol/kg] | IC50 (D(2) dopamine receptor) [nM] | other results
1 | O=C1NCCN1CCN1CCC(c2cn(-c3ccc(F)cc3)c3ccc(Br)cc23)CC1 | 1.3 | > 41 | 0.032 | > 82 | 3.8 | 
2 | Cc1nc2n(c(=O)c1CCN1CCC(c3noc4cc(F)ccc34)CC1)CCCC2 [RISPERIDONE] |  |  |  |  |  | ED50 (Rattus norvegicus [5]): > 3 µmol/kg
3 | O=C1NCCN1CCCCCCN1CCC(c2cn(-c3ccc(F)cc3)c3ccc(Cl)cc23)CC1 |  | 20 | > 2.2 | 2.7 | 2.2 | IC50 [6]: 2.5 nM
4 | CS(=O)(=O)c1ccc2c(c1)c(C1CCN(CCN3CCNC3=O)CC1)cn2-c1ccc(F)cc1 | 8 | > 17 | 54 | > 67 | 5.8 | 
5 | O=C1NCCN1CCN1CCC(c2cn(-c3ccc(F)cc3)c3ccccc23)CC1 | 0.082 | > 98 | 0.036 | > 98 | 18 | ED50 (Rattus norvegicus [5]): 0.082 µmol/kg
6 | CN1CC=C(c2cn(-c3ccc(F)cc3)c3ccc(Cl)cc23)CC1 |  | 0.085 | 0.058 | 0.085 | 1.1 | ED50 (Rattus norvegicus [5]): > 0.19 µmol/kg; IC50 [6]: 0.53 nM
7 | O=C1NCCN1CCCCCN1CCC(c2cn(-c3ccc(F)cc3)c3ccc(Cl)cc23)CC1 | 1.5 |  | 1.5 | 14 | 4.2 | 
8 | OCCN1CCN(c2cn(-c3ccc(F)cc3)c3ccc(C(F)(F)F)cc23)CC1 |  | 0.06 | 0.023 | 0.079 |  | IC50 [6]: 1.4 nM
9 | CN1CC=C(c2cn(-c3ccc(F)cc3)c3ccc(F)cc23)CC1 |  | 0.64 | 0.15 | 0.44 |  | IC50 [6]: 3 nM
10 | OCCN1CCN([C@@H]2C[C@@H](c3ccc(F)cc3)c3ccc(C(F)(F)F)cc32)CC1 (racemic) [TEFLUDAZINE] | 2.8 | 0.12 | 0.029 | 0.2 |  | 
11 | CN1CCN(CCN2CCC(c3cn(-c4ccc(F)cc4)c4ccc(Cl)cc34)CC2)C1=O | 0.24 | 31 | 0.021 | 2.6 | 6.5 | 
12 | CN1CCN(c2cn(-c3ccc(F)cc3)c3ccc(Cl)cc23)CC1 |  | 0.23 | 0.041 | 0.12 | 1 | IC50 [6]: 0.3 nM
13 | O=C1NCCN1CCN1CCC(c2cn(-c3ccc(F)cc3)c3ccc(Cl)cc23)(c2cn(-c3ccc(F)cc3)c3ccc(Cl)cc23)CC1 |  |  |  |  |  | IC50 [6]: 120 nM
14 | CN1CCN(C2=Nc3cc(Cl)ccc3Nc3ccccc32)CC1 [CLOZAPINE] |  |  |  |  |  | ED50 (Rattus norvegicus [5]): > 31 µmol/kg
15 | O=C1NCCN1CCN1CCC(c2cn(-c3ccc(F)cc3)c3ccc(C(F)(F)F)cc23)CC1 | 1 | 45 | 0.11 | 22 | 1.9 | 
16 | O=C1NCCN1CCN1CC=C(c2cn(-c3ccc(F)cc3)c3ccc(C(F)(F)F)cc23)CC1 |  | 0.49 | > 0.66 | 0.37 |  | ED50 [7]: 0.14 µmol/kg
17 | O=C1N(CCN2CCC(c3cn(-c4ccc(F)cc4)c4ccc(Cl)cc34)CC2)CCN1c1ccccc1 | 4.4 |  | > 0.15 |  | 92 | ED50 [8]: > 77 µmol/kg
18 | CC(C)N1CCN(CCN2CCC(c3cn(-c4ccc(F)cc4)c4ccc(Cl)cc34)CC2)C1=O | 2.1 | > 69 | 0.046 | > 69 | 12 | 

Row | Compound | IC50 [1] [nM] | ED50 [2] [µmol/kg] | ED50 (Rattus norvegicus [3]) [µmol/kg] | ED50 [4] [µmol/kg] | IC50 (D(2) dopamine receptor) [nM] | other results
19 | O=C1N(CCN2CCC(c3cn(-c4ccc(F)cc4)c4ccc(Cl)cc34)CC2)CCN1C1CCCC1 |  |  |  |  |  | ED50 [9]: > 2.1 µmol/kg; ED50 [8]: > 67 µmol/kg
20 | N#Cc1ccc2c(c1)c(C1=CCN(CCN3CCNC3=O)CC1)cn2-c1ccc(F)cc1 | 3.2 |  |  |  | 2.1 | ED50 [10]: 0.37 µmol/kg
21 | CN1CC=C(c2cn(-c3ccc(F)cc3)c3ccccc23)CC1 |  | 3.6 | 0.15 | 1.3 | 1.6 | 
22 | O=C1NCCN1CCCN1CCC(c2cn(-c3ccc(F)cc3)c3ccc(Cl)cc23)CC1 | 1 | 11 | 1.8 | 57 | 3.4 | 
23 | Fc1ccc(-n2cc(C3CCNCC3)c3cc(Cl)ccc32)cc1 | 3.8 |  | 1.5 |  | 23 | ED50 [8]: > 90 µmol/kg
24 | O=C1NCCN1CCN1CCC(c2c[nH]c3ccc(Cl)cc23)CC1 | 25 |  | > 14 |  | 810 | ED50 [10]: 47 µmol/kg
25 | O=C1NCCN1CCN1CCN(c2cn(-c3ccc(F)cc3)c3ccc(Cl)cc23)CC1 |  | 4.5 | 0.015 | 7.8 | 21 | IC50 [6]: 4.4 nM
26 | COc1ccc2c(c1)c(C1CCN(CCN3CCNC3=O)CC1)cn2-c1ccc(F)cc1 | 1 | > 46 | 0.77 | > 76 | 24 | 
27 | O=C1NCCN1CCN1CCC(c2cn(-c3ccc(F)cc3)c3ccc(Cl)cc23)CC1 [SERTINDOLE] |  | > 91 | 0.052 | > 180 |  | ED50 (Rattus norvegicus [5]): 0.03 µmol/kg
28 | OCCN1CCC(c2cn(-c3ccc(F)cc3)c3ccc(Cl)cc23)CC1 | 2.7 | 3.8 | 0.034 | 1.5 | 4.5 | 
29 | O=C1NCCN1CCCCN1CCC(c2cn(-c3ccc(F)cc3)c3ccc(Cl)cc23)CC1 | 59 |  | > 2.2 | > 72 | 78 | 
30 | Fc1ccc(-n2cc(C3=CCNCC3)c3cc(C(F)(F)F)ccc32)cc1 |  | > 14 | > 0.86 | 2.1 |  | 
31 | O=C1NCCN1CCN1CC=C(c2cn(-c3ccc(F)cc3)c3ccc(Cl)cc23)CC1 |  | 2.2 | 0.22 | 2 | 2.3 | ED50 (Rattus norvegicus [5]): 1.2 µmol/kg
32 | N#Cc1ccc2c(c1)c(C1CCN(CCN3CCNC3=O)CC1)cn2-c1ccc(F)cc1 | 1.3 |  |  | 34 | 2.2 | 
33 | O=C1NCCN1CCN1CCC(c2cn(-c3ccc(F)cc3)c3ccc(F)cc23)CC1 | 0.48 | > 78 | 0.052 | > 78 | 4.7 | ED50 (Rattus norvegicus [5]): 0.0097 µmol/kg
34 | CN1CC=C(c2cn(-c3ccc(F)cc3)c3ccc([N+](=O)[O-])cc23)CC1 |  | 0.025 | 0.0091 | 0.022 | 0.76 | IC50 [6]: 1.9 nM
35 | Fc1ccc(-n2cc(C3=CCNCC3)c3cc(Cl)ccc32)cc1 |  | > 61 | 1.5 |  |  | ED50 [11]: 17 µmol/kg
36 | Cc1ccc2c(c1)c(C1CCN(CCN3CCNC3=O)CC1)cn2-c1ccc(F)cc1 | 0.3 | > 91 | 0.0083 | 98 | 3.7 | 
